Experimental data published in publication PMC9097457 (The Journal of Biological Chemistry, 2022).
Counter-ions that a name gives are not always drawn.

Columns and labels:
heart mitochondria = assay: Conversion of [3H]-dGMP to [3H]-dGTP in isolated heart mitochondria; format: biochemical, rat
Procedure: (§1) Thus, we were interested in determining if the dGTP and dATP phosphorylation pathway in isolated mitochondria functioned similarly.
(§2) [^3H]-dGMP (1 μM) or [^3H]-dAMP (1 μM) was incubated in heart mitochondria as described for Figure 1 for the times shown, and their conversion to [^3H]-dGTP and [^3H]-dATP, respectively, determined in the presence and absence of Ap5A ([…]), a competitive inhibitor of adenylate kinase. Data are shown as a box plot of two independent experiments. The thickness of the lines indicates the spread of the duplicates. Ap5A, P1,P5-di(adenosine-5) pentaphosphate pentasodium salt.
(§3) To measure and compare phosphorylation and kinetics, a stable substrate concentration was necessary and EHNA (5 μM) ([50]) and I-H (2.0 μM) ([49]) were added to all mitochondrial incubations. […] The mitochondria were incubated in vitro for up to 2 h at 37 °C in a shaker bath. At the end of the incubation, reactions were terminated by addition of 10% TCA to an equal volume of incubation mixture (175 μl) and spun in a microcentrifuge to remove precipitates. The supernatant was neutralized with AG 11 A8 resin and filtered through a 0.2-μM nylon syringe filter. The neutralized and filtered supernatants were analyzed by ultra high pressure liquid chromatography (UPLC). Radioactivity was determined from aliquots of each sample and processed through a Beckman Coulter multipurpose liquid scintillation counter (model 6500).

adenylate kinase = assay: Conversion of [3H]-dAMP to [3H]-dATP in isolated heart mitochondria; format: biochemical, rat
Procedure: as §1, §2
as §3, with “The supernatant was neutralized with AG 11 A8 resin and filtered through a 0.2-μM nylon syringe filter.” left out

[1] = target: T1, deoxyguanosine kinase (dGK) (Rattus norvegicus, UniProt A0A0G2K478); assay: Tissue-specific phosphorylation of [3H]-dG, [3H]-dA and [3H]-ETV in isolated mitochondria; format: biochemical; conditions: heart mitochondria
T1 sequence (A0A0G2K478 with tags, fused parts or gaps): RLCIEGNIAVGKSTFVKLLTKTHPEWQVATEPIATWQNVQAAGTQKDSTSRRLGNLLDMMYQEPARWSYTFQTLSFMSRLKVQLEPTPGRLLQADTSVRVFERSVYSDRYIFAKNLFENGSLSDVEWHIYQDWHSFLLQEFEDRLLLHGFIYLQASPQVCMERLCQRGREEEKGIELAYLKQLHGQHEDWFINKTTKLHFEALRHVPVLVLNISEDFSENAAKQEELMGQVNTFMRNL
Procedure: As noted in the Experimental procedures, these were added together to determine total phosphorylation.
as §3
(§4) Extent of phosphorylation was measured and analyzed by UPLC (Agilent 1290) with a reverse-phase C18 column (Zorbax Eclipse Plus C18; 3.0 × 150 mm, 1.8 micron) coupled with an inline diode array to detect UV signal at 254 nm and to an inline liquid scintillation counter (β-Ram) to quantitate radioactivity.
(§5) The radioactivity in each of these peaks was quantitated and totaled to provide the total amount of radioactivity in the phosphorylated products for each labeled precursor. This total was divided by the specific radioactivity of the precursor and expressed as pmol/mg protein/hr. The Kms were calculated from Lineweaver–Burk plots 1/Vo=Km/Vmax[S]+1/Vmax

[2] = target: T2, adenosine deaminase (ADA) (Rattus norvegicus, UniProt Q920P6)
T2 sequence (Q920P6 1-352): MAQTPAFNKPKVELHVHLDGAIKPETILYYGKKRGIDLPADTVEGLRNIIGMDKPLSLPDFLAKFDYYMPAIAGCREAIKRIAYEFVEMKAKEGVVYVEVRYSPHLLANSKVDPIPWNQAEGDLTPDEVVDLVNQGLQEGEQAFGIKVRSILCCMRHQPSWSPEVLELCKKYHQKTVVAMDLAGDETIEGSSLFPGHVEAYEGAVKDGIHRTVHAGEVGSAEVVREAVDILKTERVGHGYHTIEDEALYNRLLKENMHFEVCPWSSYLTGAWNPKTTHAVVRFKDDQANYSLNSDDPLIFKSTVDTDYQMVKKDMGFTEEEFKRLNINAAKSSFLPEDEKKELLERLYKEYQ

[3] = target: T1, deoxyguanosine kinase (dGK); assay: Inhibition of [3H]-dA phosphorylation by competing deoxynucleosides in liver mitochondria; format: biochemical; conditions: IC50 values at 1 μM substrate
Procedure: as §3, §5

[4] = target: T1, deoxyguanosine kinase (dGK); assay: Kinetic analysis of [3H]-dG and [3H]-ETV phosphorylation and cross inhibition in heart mitochondria; format: biochemical; conditions: 40 μM ETV, data of Figure 4
Procedure: as §3, §5

isolated rat heart [5] = assay: Phosphorylation of [3H]-ETV, [3H]-dG and [3H]-dA in the isolated perfused rat heart (Langendorff)
Procedure: The phosphorylation of [^3H]-dG, [^3H]-dA, and [^3H]-ETV in isolated mitochondria depends on the activity of the mitochondrial dGK. To determine the degree of phosphorylation in a whole tissue, which would include the activity of the cytosolic dCK, we utilized an isolated rat heart Langendorff retrograde perfusion model. The breakdown and phosphorylation of [^3H]-ETV, [^3H]-dG, and [^3H]-dA (0.5 μM each) was measured in the perfusates and in the hearts after 60 min of perfusion (Fig. 9, A and B). […] However, the heart was still able to take up and maintain a small amount of dG to generate 0.18 ± 0.05 pmol/mg wet heart of phosphorylated dG during the 60-min perfusion. […] Despite the loss of [^3H]-dA from the perfusate, the heart took up and maintained enough dA to produce 0.48 ± 0.08 pmol/mg wet heart of phosphorylated [^3H]-dA products at 60 min (Fig. 9B). […] Note that [^3H]-dG and [^3H]-dG catabolites equilibrate rapidly between the perfusion buffer and the heart, while the phosphorylated forms of [^3H]-dG are retained solely in the heart tissue.
Figure 9 [^3H]-ETV and [^3H]-dG phosphorylation in a perfused rat heart. Rat hearts were removed and perfused using the Langendorff method for 1 h as described in Experimental procedures with 0.5 μM [^3H]-ETV, 0.5 μM [^3H]-dG), or 0.5 μM [^3H]-dA. […] A, the amount of exogenous [^3H]-parent compound in the perfusate as a function of time, plotted as a box plot of three independent experiments. See text for details. B, the amount of phosphorylated [^3H]-ETV, [^3H]-dG, or [^3H]-dA in the heart tissue after 60 min of perfusion with additions as noted in (A). See text for details.
Rat hearts were perfused by Langendorff retrograde perfusion apparatus with [^3H]-dG, [^3H]-dA, or [^3H]-ETV for 60 min under the conditions previously described ([25], [26], [51]). Perfused hearts were snap frozen into wafers by clamping the heart in liquid nitrogen, and the frozen tissue wafers were stored in −80 °C until processed as previously described for ([24]) UPLC analysis.

isolated rat heart [6] = assay: Breakdown of the [3H]-parent compound in the perfusate of the isolated perfused rat heart; format: in vitro ADME
Procedure: To determine the degree of phosphorylation in a whole tissue, which would include the activity of the cytosolic dCK, we utilized an isolated rat heart Langendorff retrograde perfusion model.
See text for details. […] See text for details.
Perfused hearts were snap frozen into wafers by clamping the heart in liquid nitrogen, and the frozen tissue wafers were stored in −80 °C until processed as previously described for ([24]) UPLC analysis.

[7] = target: T3, purine nucleoside phosphorylase (PNP) (Rattus norvegicus, UniProt P85973); conditions: 2.0 μM, kidney mitochondria, 60 min
T3 sequence (P85973 1-289): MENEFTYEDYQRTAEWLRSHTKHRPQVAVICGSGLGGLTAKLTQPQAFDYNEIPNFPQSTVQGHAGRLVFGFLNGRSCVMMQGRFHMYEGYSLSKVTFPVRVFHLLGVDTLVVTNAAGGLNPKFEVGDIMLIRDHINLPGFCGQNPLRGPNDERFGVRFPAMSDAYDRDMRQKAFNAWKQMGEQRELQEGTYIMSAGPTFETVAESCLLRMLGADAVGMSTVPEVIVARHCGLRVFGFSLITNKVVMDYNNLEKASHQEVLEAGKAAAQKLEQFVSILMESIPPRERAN

[8] = target: T1, deoxyguanosine kinase (dGK); assay: Pilot study: effect of 100 μM dG/dA nucleoside analogs on [3H]-dG or [3H]-dA phosphorylation in isolated mitochondria; format: biochemical; conditions: 100 μM analog; [3H]-dG 0.5 μM in liver, kidney, heart, brain mitochondria; [3H]-dA in liver mitochondria; 2 h; + EHNA 5 μM, I-H 2 μM
Procedure: Immucillin-H (I-H) (2 μM) and EHNA (5 μM) were added to the incubation mixture to prevent the breakdown of substrate by purine nucleoside phosphorylase (PNP) and adenosine deaminase (ADA) activity, respectively.
as §3, §4, §5

Nc1ncnc2c1ncn2[C@@H]1O[C@H](COP(=O)([O-])OP(=O)([O-])OP(=O)([O-])OP(=O)([O-])OP(=O)([O-])OC[C@H]2O[C@@H](n3cnc4c(N)ncnc43)[C@H](O)[C@@H]2O)[C@@H](O)[C@H]1O.[Na+].[Na+].[Na+].[Na+].[Na+] [Ap5A, P1,P5-di(adenosine-5) pentaphosphate pentasodium salt]
effect on phosphorylation of dGMP (heart mitochondria; Ap5A 40 μM): not inhibited
effect on conversion of [3H]-dAMP to [3H]-dATP (adenylate kinase; Ap5A 40 μM): inhibited

CCCCCCC(C(C)O)n1cnc2c(N)ncnc21.Cl (stereo not drawn) [EHNA, erythro-9-(2-Hydroxy-3-nonyl)-adenine hydrochloride]
effect on [3H]-dA or [3H]-dG phosphorylation [1]: no effect
effect on conversion of [3H]-dA to breakdown products ([2]; EHNA 5 μM, 60 min): completely prevented this conversion

C=C1[C@H](CO)[C@@H](O)C[C@@H]1n1cnc2c(=O)[nH]c(N)nc21 [ETV, entecavir]
inhibition of dA phosphorylation more potent than ETV inhibition of dG phosphorylation [3]: 500 fold
rate of [3H]-dG phosphorylation to [3H]-dGTP in the presence of inhibitor [4]: 12.4 ± 2.0 pmol/mg protein/hr
effect on conversion of [3H]-dGMP to [3H]-dGTP (heart mitochondria; ETV 40 μM): no effect
phosphorylated product in heart (isolated rat heart [5]; 0.5 μM labeled compound alone, 60-min perfusion): 0.25 ± 0.05 pmol/mg wet heart
inhibition of [3H]-dG phosphorylation (isolated rat heart [5]; 100 μM unlabeled ETV added to [3H]-dG + I-H, 60-min perfusion): 82.0 ± 0.7%
effect on [3H]-dA phosphorylation (isolated rat heart [5]; ETV 100 μM added to the perfusate): did not appear to inhibit

O=c1[nH]cnc2c([C@@H]3N[C@H](CO)[C@@H](O)[C@H]3O)c[nH]c12 [I-H, forodesine hydrochloride]
effect on [3H]-dA or [3H]-dG phosphorylation [1]: no effect
effect on breakdown of dG in the perfusate (isolated rat heart [6]; I-H 2 μM): prevented most of the breakdown
effect on conversion of [3H]-dG to breakdown products [7]: completely prevented this conversion
effect on [3H]-dA breakdown ([2]; Immucillin-H 2.0 μM, 60 min): no effect

CC(C)OC(=O)OCOP(=O)(CO[C@H](C)Cn1cnc2c(N)ncnc21)OCOC(=O)OC(C)C.O=C(O)/C=C/C(=O)O [TDF, tenofovir disproxil fumarate]
inhibition of the phosphorylation of dA and dG [8]: ETV was shown to be the only dG/dA analog of the eight tested that showed significant inhibition

Nc1ncnc2c1ncn2CCOCP(=O)(O)O [adefovir]
inhibition of the phosphorylation of dA and dG [8]: ETV was shown to be the only dG/dA analog of the eight tested that showed significant inhibition

Nc1ncnc2c1ncn2[C@H]1C[C@H](O)[C@@H](CO)O1 [dA, deoxyadenosine]
phosphorylated [3H]-dA products in heart (isolated rat heart [5]; 0.5 μM [3H]-dA, I-H and EHNA in the perfusate, 60 min): 0.48 ± 0.08 pmol/mg wet heart
parent compound in the perfusate by 60 min (isolated rat heart [6]; 0.5 μM [3H]-dA, EHNA added): complete loss
parent compound remaining in the perfusate by 3 min (isolated rat heart [6]; 0.5 μM [3H]-dA, EHNA added): 47.5%
parent compound in the perfusate by 3 min (isolated rat heart [6]; 0.5 μM [3H]-dA, in the presence of I-H): completely lost
stability in heart mitochondria ([2]; heart mitochondria, initial studies): stable
conversion of [3H]-dA to breakdown products ([2]; mitochondria isolated from kidney, 60 min, no inhibitor): 28%

Nc1ncnc2c1ncn2[C@H]1C[C@H](O)[C@@H](COP(=O)(O)O)O1 [dAMP]
time to complete conversion to [3H]-dATP (adenylate kinase; 1 μM): ≤ 10 min

Nc1nc2c(ncn2[C@H]2C[C@H](O)[C@@H](COP(=O)(O)O)O2)c(=O)[nH]1 [dGMP]
plateau, complete conversion of [3H]-dGMP to [3H]-dGTP (heart mitochondria; 1 μM): 123 ± 1 pmol/mg protein
conversion to [3H]-dGTP at the 30-min time point (heart mitochondria; 1 μM precursor): 106 ± 4 pmol/mg protein
conversion of dGMP to dGTP faster than conversion of dG to dGTP (heart mitochondria; 30 min): 4.6 times

Nc1nc2c(ncn2[C@H]2CC[C@@H](CO)O2)c(=O)[nH]1 [dideoxyguanosine]
inhibition of the phosphorylation of dA and dG [8]: ETV was shown to be the only dG/dA analog of the eight tested that showed significant inhibition

Nc1nc(O)c2ncn(COC(CO)CO)c2n1 [ganciclovir]
inhibition of the phosphorylation of dA and dG [8]: ETV was shown to be the only dG/dA analog of the eight tested that showed significant inhibition

Nc1nc(=O)c2ncn([C@@H]3C[C@H](CO)[C@H]3CO)c2[nH]1 [lobucavir]
inhibition of the phosphorylation of dA and dG [8]: ETV was shown to be the only dG/dA analog of the eight tested that showed significant inhibition

Nc1nc2c(ncn2CCC(CO)CO)c(=O)[nH]1 [penciclovir]
inhibition of the phosphorylation of dA and dG [8]: ETV was shown to be the only dG/dA analog of the eight tested that showed significant inhibition

C[C@H](Cn1cnc2c(N)ncnc21)OCP(=O)(O)O [tenofovir]
inhibition of the phosphorylation of dA and dG [8]: ETV was shown to be the only dG/dA analog of the eight tested that showed significant inhibition
